# Columns and labels:
# [1] = Parent ionizable lipid remaining in liver at 6 h after luciferase mRNA LNP (LC-MS); format: in vivo; details: 6 h after IV 0.5 mg/kg Luciferase mRNA LNP
# Experimental: (§1) Liver tissues were treated with PBS and homogenized with a FastPrep machine, 3 cycles of 5 m/s×15 s. Homogenates from the PBS-treated control animals was pooled and used for standard curve preparation. Samples were extracted into a deep well plate with 250 μL of an internal suitability standard. Plates were centrifuged for 15 min at 4° C. and 2000 rpm. Analysis was performed using an Agilent 6520 QTOF coupled to an Agilent 1290 UHPLC, using reverse-phase LC separation. Quantitation of the ionizable lipid was by MS/MS against a calibration curve spiked into appropriately matched blank matrix. Calibration used a similar class of synthetic lipid as internal standard.
# At 6 h post-dose, some treatment groups reported lower levels of novel ionizable lipid in mouse liver compared to the benchmark (Tables 16-18).
# [2] = test system: luciferase activity in the liver; test: Luciferase activity in liver after intravenous luciferase mRNA LNP; format: in vivo; details: 0.5 mg/kg IV, 6 h post-IV administration, BALB/c mice (n = 4)
# [3] = Particle characteristics of LNPs containing luciferase mRNA and novel ionizable lipids; format: physicochemical; details: luciferase mRNA LNP 1.6:54.6:32.8:10.9
# How it was run: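 LNPs made from PEG-lipid, ionizable lipid, cholesterol and phospholipid in ethanol, T-mixed with luciferase mRNA in 100 mM acetate pH 5. Products were dialysed, concentrated, and dialysed into 5 mM Tris, 10% sucrose, pH 8, then 0.2 μm filtered. mRNA was measured by RiboGreen, and size and polydispersity by dynamic light scattering on a Zetasizer.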
# [4] = Particle characteristics of LNPs containing EGFP mRNA and novel ionizable lipids; format: physicochemical; details: EGFP mRNA LNP 1.6:54.6:32.8:10.9
# Experimental: The lipid solution contains 4 components: a PEG-conjugated lipid, an ionizable lipid, cholesterol, and a phospholipid (e.g., DSPC). Lipid stocks were prepared using the lipid identities and molar ratios as described, to achieve a total concentration of ˜7 mg/mL in 100% ethanol. […] Equal volumes of the lipid and nucleic acid solutions were blended at a flow rate of 400 mL/min through a T-connector, and diluted with ˜4 volumes of PBS, pH 7.4. Formulations were placed in Slide-A-Lyzer dialysis units (MWCO 10,000) and dialyzed overnight against 10 mM Tris, 500 mM NaCl, pH 8 buffer. Following dialysis, the formulations were concentrated to ˜0.6 mg/mL using VivaSpin concentrator units (MWCO 100,000) and dialyzed overnight against 5 mM Tris, 10% sucrose, pH 8 buffer. Formulations were filtered through a 0.2 μm syringe filter (PES membrane). Nucleic acid concentration was determined by the RiboGreen assay. Particle size and polydispersity were determined using a Malvern Nano Series Zetasizer.
# LNP formulations containing novel ionizable lipids all produced stable particles with high encapsulation efficiency (Tables 20-23).
# [5] = Parent ionizable lipid remaining in liver at 24 h after EGFP mRNA LNP (LC-MS); format: in vivo; details: 24 h after IV 0.5 mg/kg EGFP mRNA LNP, female BALB/c mice (n = 4)
# Experimental: as §1
# At 24 h post-dose, some treatment groups reported lower levels of novel ionizable lipid in mouse liver compared to the benchmark (Tables 28-31).
# [6] = test system: EGFP expression in the liver; test: EGFP expression in liver after intravenous EGFP mRNA LNP (ELISA); details: 0.5 mg/kg IV, 24 h post-IV administration, BALB/c mice (n = 4)
# Experimental: LNP formulations encapsulating enhanced green fluorescent protein mRNA were injected intravenously at 0.5 mg/kg to female BALB/c mice (6-8 weeks old). On day of injection, the LNP stocks were filtered and diluted to the required dosing concentration with phosphate buffered saline. At 24 hours post-administration, animals were anaesthetized with a lethal dosage of ketamine/xylazine. Liver samples (left lateral lobe) were collected, weighed, and flash frozen in liquid nitrogen. Liver samples were stored in FastPrep® tubes at −80° C. until analyzed for EGFP expression.
# Liver homogenates were prepared in cell extraction buffer, diluted, and analyzed for EGFP protein levels using ELISA, according to manufacturer's instructions (Abcam, GFP ELISA Kit).
# [7] = Table 18, female BALB/c mice (n = 4)
Compound,"Parent ionizable lipid remaining in liver, Average [1, 7] [nmol/g liver]",Luc Activity ([2]; Table 14) [pg/g liver],Final Product % EE ([3]; Table 7) [%],Final Product PDI ([3]; Table 7),Final Product Z-avg ([3]; Table 7) [nm],Final Product % EE ([4]; Table 21) [%],Final Product PDI ([4]; Table 21),Final Product Z-avg ([4]; Table 21) [nm],"Parent ionizable lipid remaining in liver, Average ([5]; Table 29) [nmol/g liver]",EGFP ([6]; Table 25) [pg/g liver],other results
"CCCCCCCCCCC(CCCCCCCC(=O)OCCC(CCCCC)CCCCC)N(CCCCCCCCC(=O)OCCC(CCCCC)CCCCC)C(=O)CCCCN(C)C (centres unmarked) [Compound 65, 3-Pentyloctyl 9-(5-(dimethylamino)-N-(9-oxo-9-((3-pentyloctyl)oxy)nonyl)-pentanamido)-nonadecanoate]",–,–,–,–,–,–,–,–,–,–,"Parent ionizable lipid remaining in liver, Average ([1]; Table 17, female mice (n = 4)): 27.84 nmol/g liver; Luc Activity ([2]; Table 13): 3.88E+07 pg/g liver; Final Product % EE ([3]; Table 6): 98%; Final Product PDI ([3]; Table 6): 0.01; Final Product Z-avg ([3]; Table 6): 83 nm"
"CCCCCCCCCCC(CCCCCCCC(=O)OCC(CCCCCC)CCCCCCCC)N(CCCCCCCCC(=O)OCC(CCCCCC)CCCCCCCC)C(=O)CCCCN(C)C (centres unmarked) [Compound 72, 2-Hexyldecyl 9-(5-(dimethylamino)-N-(9-((2-hexyldecyl)oxy)-9-oxononyl)pentanamido)-nonadecanoate]",–,–,–,–,–,–,–,–,–,–,"Parent ionizable lipid remaining in liver, Average ([1]; Table 17, female mice (n = 4)): 47.56 nmol/g liver; Luc Activity ([2]; Table 13): 2.26E+07 pg/g liver; Final Product % EE ([3]; Table 6): 99%; Final Product PDI ([3]; Table 6): 0.00; Final Product Z-avg ([3]; Table 6): 79 nm"
"CCCCCCCCCCC(CCCCCCCC(=O)OCCC(CCCCC)CCCCC)N(CCCCCCCC(=O)OCCC(CCCCC)CCCCC)C(=O)CCCCN(C)C (centres unmarked) [Compound 73, 3-Pentyloctyl 9-(5-(dimethylamino)-N-(8-oxo-8-((3-pentyloctyl)oxy)octyl)-pentanamido)-nonadecanoate]",31.41,3.64E+07,99,0.00,82,–,–,–,–,–,–
"CCCCCCCCCCC(CCCCCCCC(=O)OCC(CCCCCC)CCCCCCCC)N(CCCCCCCC(=O)OCC(CCCCCC)CCCCCCCC)C(=O)CCCCN(C)C (centres unmarked) [Compound 74, 2-Hexyldecyl 9-(5-(dimethylamino)-N-(8-((2-hexyldecyl)oxy)-8-oxooctyl)-pentanamido)-nonadecanoate]",17.92,6.77E+07,99,0.05,89,–,–,–,–,–,–
"CCCCCCCCCCN(C(=O)CCCN(C)C)C(CCCCCCCCC)CCCCCCC(F)C(=O)OCCC(CCCCCC)CCCCCC (centres unmarked) [Compound 76, 3-Hexylnonyl 9-[N-decyl-4-(dimethylamino)butanamido]-2-fluorooctadecanoate]",17.86,2.09E+07,98,0.07,69,–,–,–,–,–,–
"CCCCCCCCCCN(C(=O)CCCN(C)C)C(CCCCCCCCC)CCCCCCC(F)C(=O)OCC(CCCCCC)CCCCCCCC (centres unmarked) [Compound 77, 2-Hexyldecyl 9-(N-decyl-4-(dimethylamino)butanamido)-2-fluorooctadecanoate]",30.63,3.26E+07,99,0.09,63,–,–,–,–,–,–
"CCCCCCCCCCC(CCCCCCC(F)(F)C(=O)OCCC(CCCCC)CCCCC)N(CCCCCCCC(=O)OCCC(CCCCC)CCCCC)C(=O)CCCN(C)C (centres unmarked) [Compound 87, 3-pentyloctyl 9-[4-(dimethylamino)-N-{8-oxo-8-[(3-pentyloctyl)oxy]octyl}butanamido]-2,2-difluorononadecanoate]",3.23,1.18E+06,98,0.05,78,–,–,–,–,–,–
"CCCCCCCCCC(CCCCCCC(F)C(=O)OCCC(CCCCC)CCCCC)N(CCCCCCCC(=O)OCCC(CCCCC)CCCCC)C(=O)CCCN(C)C (centres unmarked) [Compound 88, 3-pentyloctyl 9-[4-(dimethylamino)-N-{8-oxo-8-[(3-pentyloctyl)oxy]octyl}butanamido]-2-fluorooctadecanoate]",7.88,1.64E+07,99,0.04,72,–,–,–,–,–,–
"CCCCCCCCCCC(CCCCCCC(=O)OCCC(CCCCC)CCCCC)N(CCCCCCCCCC)C(=O)CCCCN1CCCC1 (centres unmarked) [Compound 89, 3-Pentyloctyl 8-(N-decyl-5-(pyrrolidin-1-yl)pentanamido)octadecanoate]",–,–,–,–,–,–,–,–,–,–,"Final Product % EE ([4]; Table 20): 99%; Final Product PDI ([4]; Table 20): 0.03; Final Product Z-avg ([4]; Table 20): 83 nm; Parent ionizable lipid remaining in liver, Average ([5]; Table 28): 4.32 nmol/g liver; EGFP ([6]; Table 24): 2.01E+07 pg/g liver"
"CCCCCCCCCCC(CCCCCCC(=O)OCCC(CCCCCC)CCCCCC)N(CCCCCCCCCC)C(=O)CCCCN1CCCC1 (centres unmarked) [Compound 90, 3-Hexylnonyl 8-(N-decyl-5-(pyrrolidin-1-yl)pentanamido)octadecanoate]",–,–,–,–,–,–,–,–,–,–,"Final Product % EE ([4]; Table 20): 99%; Final Product PDI ([4]; Table 20): 0.07; Final Product Z-avg ([4]; Table 20): 79 nm; Parent ionizable lipid remaining in liver, Average ([5]; Table 28): 13.37 nmol/g liver; EGFP ([6]; Table 24): 2.12E+07 pg/g liver"
"CCCCCCCCCCC(CCCCCCC(=O)OCCC(CCCCCCC)CCCCCCC)N(CCCCCCCCCC)C(=O)CCCCN1CCCC1 (centres unmarked) [Compound 91, 3-Heptyldecyl 8-(N-decyl-5-(pyrrolidin-1-yl)pentanamido)octadecanoate]",–,–,–,–,–,–,–,–,–,–,"Final Product % EE ([4]; Table 20): 99%; Final Product PDI ([4]; Table 20): 0.03; Final Product Z-avg ([4]; Table 20): 85 nm; Parent ionizable lipid remaining in liver, Average ([5]; Table 28): 18.58 nmol/g liver; EGFP ([6]; Table 24): 3.15E+07 pg/g liver"
"CCCCCCCCCCN(C(=O)CCCN(C)C)C(CCCCCCCCC)CCCCCCC(F)(F)C(=O)OC(CCCCCC)CCCCCC (centres unmarked) [Compound 92, Tridecan-7-yl 9-(N-decyl-4-(dimethylamino)butanamido)-2,2-difluorooctadecanoate]",–,–,–,–,–,99,0.09,71,8.83,6.34E+05,–
"CCCCCCCCCCN(C(=O)CCCN(C)C)C(CCCCCCCCC)CCCCCCC(F)(F)C(=O)OC(CCCCCCC)CCCCCCC (centres unmarked) [Compound 93, Pentadecan-8-yl 9-(N-decyl-4-(dimethylamino)butanamido)-2,2-difluorooctadecanoate]",–,–,–,–,–,98,0.02,69,24.61,1.77E+05,–
"CCCCCC/C=C\CCON(C(=O)CCCCN(C)C)C(CCCCCCCCCC)CCCCCCC(=O)OCCC(CCCCC)CCCCC (centres unmarked) [Compound 94, 3-Pentyloctyl (Z)-8-(N-(dec-3-en-1-yloxy)-5-(dimethylamino)pentanamido)octadecanoate]",–,–,–,–,–,98,0.06,83,6.57,1.20E+06,–
"CCCCCCCCCCON(C(=O)CCCCN(C)C)C(CCCCCCCCCC)CCCCCCC(=O)OCCC(CCCCC)CCCCC (centres unmarked) [Compound 95, 3-Pentyloctyl 8-(N-(decyloxy)-5-(dimethylamino)pentanamido)octadecanoate]",–,–,–,–,–,96,0.08,80,9.44,8.76E+05,–
"CCCCCCCCCCON(C(=O)CCCCN(C)C)C(CCCCCCCCCC)CCCCCCC(=O)OCCC(CCCCCC)CCCCCC (centres unmarked) [Compound 97, 3-Hexylnonyl 8-(N-(decyloxy)-5-(dimethylamino)pentanamido)octadecanoate]",–,–,–,–,–,99,0.07,85,19.31,1.48E+06,–

# — patent publication US20250332112A1, “IONIZABLE CATIONIC LIPIDS FOR LIPID NANOPARTICLES” (GENEVANT SCIENCES GMBH, priority 2022, published 2025)
